From patent US12227520B2 (priority 2019, dated 2025)
Like-named read-outs stand apart in the source and are kept apart here.

How the values were obtained:
pLai RLuc reporter virus = experiment: microbe, parasite or virus in culture; type: cell-based, HIV
How it was run: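 MT-4 cells pre-infected 2 h at 37 °C with pLai RLuc virus, then exposed to 1:3 serial dilutions of compound in RPMI/10% FBS with or without 50% human serum for 72 h at 37 °C. Renilla luminescence read-out; serum shift = EC50(HS/CCM)/EC50(CCM).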

HIV-1 (IIIB) = experiment: Antiviral assay in MT-4 cells (HIV MT-4 antiviral assay); type: cell-based; conditions: HIV-1 (IIIB) in MT-4 cells, 5 days incubation
How it was run: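 MT-4 cells infected with HIV-1 IIIB (1:250 diluted stock) and exposed to 1:3 serially diluted compound in RPMI with 10% FBS. Viability read by CellTiter-Glo luminescence after 5 days at 37° C; mock-infected cells and 5 μM AZT as controls.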

[1] = Cytotoxicity assay in MT-4 cells; type: cell-based, human; conditions: human, uninfected MT-4 cells, 5 days incubation; read-out: CC50
How it was run: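 Infected MT-4 cells (HIV-1 IIIB, fresh 1:250 dilution of concentrated stock) or mock-infected cells exposed to compounds for 5 days at 37 °C. Viability by CellTiter-Glo luminescence; 5 μM AZT positive control, no-drug negative control. Uninfected cells used for cytotoxicity, with 10 μM puromycin as base-level cytotoxicity control.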

[2] = Human immunodeficiency virus 1, 72 h, read-out: Antiviral Serum Shift RLuc 50% HS, HS/CCM (RPMI media, 10% FBS, 50% HS, 1% P/S), 72-h incubation
[3] = Human immunodeficiency virus 1, 72 h, read-out: Antiviral Serum Shift RLuc CCM, CCM (RPMI media, 10% FBS, 1% P/S), 72-h incubation
[4] = Human immunodeficiency virus 1, IIIB, MT4, 120 h, read-out: EC50

SMILES | EC50 (pLai RLuc reporter virus; [2]) | EC50 (pLai RLuc reporter virus; [3]) | EC50 (HIV-1 (IIIB); [4]) | CC50 at 5 days [1] | EC50 (pLai RLuc reporter virus; read-out: Antiviral Serum Shift RLuc 50% HS, HS/CCM (RPMI media, 10% FBS, 50% HS, 1% P/S), 72-h incubation) | EC50 (HIV-1 (IIIB); read-out: EC50) | EC50 (HIV-1 (IIIB); Human immunodeficiency virus 1, IIIB, MT4, 120 h)
C[C@]1(F)CCCN2C[C@@H]1n1cc(C(=O)NCc3c(F)cc(F)cc3F)c(=O)c(O)c1C2=O [Example 61-1, (6S, 7S)-6-fluoro-12-hydroxy-6-methyl-1,11-dioxo-N-(2,4,6-trifluorobenzyl)-1,4,5,6,7,11-hexahydro-3H-2,7-methanopyrido[1,2-a][1,4]diazonine-10-carboxamide] | 72 nM | 0.206 nM | 1.85 nM | 10300 nM |  |  | 
C[C@@]12CN(CCc3cc(F)c(F)cc31)C(=O)c1c(O)c(=O)c(C(=O)NCc3c(F)cc(F)cc3F)cn12 (single isomer, unassigned) [Example 120-1] | 4.96 nM | 0.371 nM | 3.54 nM | 8990 nM |  |  | 
O=C(NCc1c(F)cc(F)cc1F)c1cn2c(c(O)c1=O)C(=O)N1CCC[C@@H]3C[C@]32C1 [Example 66-1, (1aR,11aR)—N-(2,4,6-trifluorobenzyl)-7-hydroxy-6,8-dioxo-1a,2,3,4,6,8-hexahydro-1H-5,11a-methanocyclopropa[h]pyrido[1,2-a][1,4]diazonine-9-carboxamide] | 20.3 nM | 0.226 nM | 1.76 nM | 11100 nM |  |  | 
O=C(NCc1c(F)cc(F)cc1F)c1cn2c(c(O)c1=O)C(=O)N1C[C@@H]2CCCc2ccccc21 [Example 80-1, (6S)-1-hydroxy-2,15-dioxo-N-(2,4,6-trifluorobenzyl)-2,6,7,8,9,15-hexahydro-6,14-methanobenzo[e]pyrido[1,2-a][1,4]diazecine-3-carboxamide] | 0.651 nM | 0.348 nM | 2.24 nM | 10400 nM |  |  | 
O=C(NCc1ccc(F)c(Cl)c1F)c1cn2c(c(O)c1=O)C(=O)N1CCCC(F)(F)[C@H]2C1 (single isomer, unassigned) [Example 117-1] | 7.17 nM | 0.33 nM | 1.93 nM | 13300 nM |  |  | 
O=C(NCc1c(F)cc(F)cc1F)c1cn2c(c(O)c1=O)C(=O)N1CCCC(F)(F)[C@H]2C1 (single isomer, unassigned) [Example 10-2] | 5.04 nM | 0.27 nM | 1 nM | 16100 nM |  |  | 
C[C@H]1CC[C@H]2CN(C1)C(=O)c1c(O)c(=O)c(C(=O)NCc3c(F)cc(F)cc3F)cn12 [Example 137-1, (4S,7S)-12-hydroxy-4-methyl-1,11-dioxo-N-(2,4,6-trifluorobenzyl)-1,4,5,6,7,11-hexahydro-3H-2,7-methanopyrido[1,2-a][1,4]diazonine-10-carboxamide] | 0.707 nM | 0.184 nM | 2.63 nM | 14700 nM |  |  | 
O=C(NCc1c(F)cc(F)c(Cl)c1F)c1cn2c(c(O)c1=O)C(=O)N1CCCC[C@H]2C1 [Example 74, (7S)—N-(3-chloro-2,4,6-trifluorobenzyl)-12-hydroxy-1,11-dioxo-1,4,5,6,7,11-hexahydro-3H-2,7-methanopyrido[1,2-a][1,4]diazonine-10-carboxamide] | 13.8 nM | 0.492 nM | 1.52 nM | 7280 nM |  |  | 
C[C@@]1(F)CCCN2C[C@@H]1n1cc(C(=O)NCc3c(F)cc(F)cc3F)c(=O)c(O)c1C2=O [Example 61-2, (6R, 7S)-6-fluoro-12-hydroxy-6-methyl-1,11-dioxo-N-(2,4,6-trifluorobenzyl)-1,4,5,6,7,11-hexahydro-3H-2,7-methanopyrido[1,2-a][1,4]diazonine-10-carboxamide] | 13.8 nM | 0.142 nM | 2.51 nM | 16900 nM |  |  | 
C[C@@H]1C=C[C@H](C)N2C[C@H]1n1cc(C(=O)NCc3ccc(F)cc3F)c(=O)c(O)c1C2=O [Example 177, (3S,6R,7S)—N-(2,4-difluorobenzyl)-12-hydroxy-3,6-dimethyl-1,11-dioxo-1,6,7,11-tetrahydro-3H-2,7-methanopyrido[1,2-a][1,4]diazonine-10-carboxamide] | 11.1 nM | 0.294 nM | 0.915 nM | 8540 nM |  |  | 
O=C(NCc1c(F)cc(F)cc1F)c1cn2c(c(O)c1=O)C(=O)N1CCCC[C@@H]2C1 [Example 26-1, (7R)-12-hydroxy-1,11-dioxo-N-(2,4,6-trifluorobenzyl)-1,4,5,6,7,11-hexahydro-3H-2,7-methanopyrido[1,2-a][1,4]diazonine-10-carboxamide] | 33.4 nM | 0.354 nM | 1.4 nM | 15900 nM |  |  | 
O=C(NCc1c(F)cc(F)cc1F)c1cn2c(c(O)c1=O)C(=O)N1CC=CC[C@H]2C1 [Example 101, (7S)-12-hydroxy-1,11-dioxo-N-(2,4,6-trifluorobenzyl)-1,6,7,11-tetrahydro-3H-2,7-methanopyrido[1,2-a][1,4]diazonine-10-carboxamide] | 1.62 nM | 0.22 nM | 1.52 nM | 19500 nM |  |  | 
O=C(NCc1c(F)cc(F)cc1F)c1cn2c(c(O)c1=O)C(=O)N1CCCC[C@H]2C1 [Example 26-2, (7S)-12-hydroxy-1,11-dioxo-N-(2,4,6-trifluorobenzyl)-1,4,5,6,7,11-hexahydro-3H-2,7-methanopyrido[1,2-a][1,4]diazonine-10-carboxamide] | 2.29 nM | 0.353 nM | 1.31 nM | 14400 nM |  |  | 
CC1CCCN2CC1n1cc(C(=O)NCc3ccc(F)cc3F)c(=O)c(O)c1C2=O (stereo not shown) [Example 17-1b, N-(2,4-difluorobenzyl)-12-hydroxy-6-methyl-1,11-dioxo-1,4,5,6,7,11-hexahydro-3H-2,7-methanopyrido[1,2-a][1,4]diazonine-10-carboxamide] |  | 0.26 nM | 1.2 nM | 10900 nM | 3.1 nM |  | 
CC(C)N1CCN2CC(C1)n1cc(C(=O)NCc3ccc(F)cc3F)c(=O)c(O)c1C2=O (stereo not shown) [Example 34, N-(2,4-difluorobenzyl)-12-hydroxy-5-isopropyl-1,11-dioxo-1,4,5,6,7,11-hexahydro-3H-2,7-methanopyrido[1,2-a][1,4,7]triazonine-10-carboxamide] | 9.56 nM | 2.06 nM | 3.3 nM | 16400 nM |  |  | 
C[C@]12CC=CCN(C1)C(=O)c1c(O)c(=O)c(C(=O)NCc3ccc(F)cc3F)cn12 [Example 168, (7S)—N-(2,4-difluorobenzyl)-12-hydroxy-7-methyl-1,11-dioxo-1,6,7,11-tetrahydro-3H-2,7-methanopyrido[1,2-a][1,4]diazonine-10-carboxamide] | 41.3 nM | 0.187 nM | 1.75 nM | 13700 nM |  |  | 
O=C(NCc1c(F)cc(F)cc1F)c1cn2c(c(O)c1=O)C(=O)N1CC2CCc2ccccc21 (single isomer, unassigned) [Example 38-1] | 360 nM | 2.64 nM |  | 11000 nM |  | 16.3 nM | 
O=C(NCc1ccc(F)cc1F)c1cn2c(c(O)c1=O)C(=O)N1Cc3cc(F)ccc3C[C@H]2C1 [Example 146, (6S)—N-(2,4-difluorobenzyl)-10-fluoro-1-hydroxy-2,14-dioxo-2,7,12,14-tetrahydro-6H-6,13-methanobenzo[f]pyrido[1,2-a][1,4]diazonine-3-carboxamide] | 1.12 nM | 0.227 nM | 1.76 nM | > 50000 nM |  |  | 
O=C(NCc1c(F)cc(F)cc1F)c1cn2c(c(O)c1=O)C(=O)N1CCOC[C@@H]2C1 [Example 19, (7S)-12-hydroxy-1,11-dioxo-N-(2,4,6-trifluorobenzyl)-1,3,4,6,7,11-hexahydro-2,7-methanopyrido[1,2-d][1,4,7]oxadiazonine-10-carboxamide] | 4.35 nM | 1.21 nM | 4 nM | > 50000 nM |  |  | 
O=C1c2c(O)c(=O)c(-c3nnc(Cc4ccc(F)cc4F)s3)cn2[C@H]2CCCCN1C2 [Example 185, (7S)-10-(5-(2,4-difluorobenzyl)-1,3,4-thiadiazol-2-yl)-12-hydroxy-4,5,6,7-tetrahydro-3H-2,7-methanopyrido[1,2-a][1,4]diazonine-1,11-dione] | 4.88 nM | 0.984 nM | 3.29 nM | 3550 nM |  |  | 
C[C@H]1CCCN2CC1n1cc(C(=O)NCc3c(F)cc(F)cc3F)c(=O)c(O)c1C2=O (stereo partly drawn) [Example 190, (6S)-12-hydroxy-6-methyl-1,11-dioxo-N-(2,4,6-trifluorobenzyl)-1,4,5,6,7,11-hexahydro-3H-2,7-methanopyrido[1,2-a][1,4]diazonine-10-carboxamide] | 14.2 nM | 0.434 nM |  | 22800 nM |  |  | 1.81 nM
O=C(NCc1ccc(F)cc1F)c1cn2c(c(O)c1=O)C(=O)N1CC[C@H](F)C[C@@H]2C1 [Example 56-3, (5S, 7R)—N-(2,4-difluorobenzyl)-5-fluoro-12-hydroxy-1,11-dioxo-1,4,5,6,7,11-hexahydro-3H-2,7-methanopyrido[1,2-a][1,4]diazonine-10-carboxamide] | 13.3 nM | 0.312 nM | 5.24 nM | 16100 nM |  |  | 
